Results reported in PubChem BioAssay AID449750 (Broad Institute, 2010).
Calls of active or inactive are those of the source. No rule for the calls is given here.

Assay: non-covalent RecA intein splicing inhibitors, dose response, biochemical, cell-free, fluorescence, secondary screen (AID 449750)

SMILES | AC50
COc1cc(/C=C2/C(=O)N(c3ccccc3)N=C2C)ccc1OS(=O)(=O)c1ccccc1 | 3.34 µM
CSc1nc(-c2ccccc2)nn1C(=O)c1ccc(Cl)cc1 | > 38 µM (inactive)
CC(=O)c1cccc(NC(=O)CSc2ncc(C(=O)Nc3ccccc3)c(=O)n2C)c1 | > 12 µM (inactive)
COC(=O)Cc1[nH]nc2c1C(c1ccc(O)c(OC)c1)C(C#N)=C(N)O2 (stereo unspecified) | 28.4 µM
CC(=O)Nc1ccc(NC(=O)c2nc(S(=O)(=O)Cc3ccccc3)ncc2Cl)cc1 | > 38 µM (inactive)
Cc1cc2c3c(c1)C(C)CC(C)(C)N3C(=O)C2=C(C#N)C#N (stereo unspecified) | > 38 µM (inactive)
Cc1ccc(NC(=O)C(CC(C)C)NC(N)=O)cc1 (stereo unspecified) | > 38 µM (inactive)
COc1ccc(C2=NN(c3ccccc3)C(=O)/C2=C\c2ccc(O)c(OC)c2)cc1 | 3.62 µM
O=[N+]([O-])c1ccc(Sc2nnnn2-c2ccccc2)nc1 | > 38 µM (inactive)
CCN(CC)C(=O)CSc1nnc2nnc3cc(OC)ccc3n12 | > 38 µM (inactive)
C/C(CC(=O)NCc1ccco1)=N\NC(=O)c1ccc([N+](=O)[O-])cc1Cl | > 38 µM (inactive)
CC(C)CC(NC(=O)CCl)c1ccccc1 (stereo unspecified) | 5.47 µM
c1ccc(CCNCc2cccs2)cc1 | > 38 µM (inactive)
COc1cc2c(cc1OC)-c1c(OC)c(OC)cc3c1[C@H](C2)N(C)CC3 | 27 µM
COc1ccc(N2C(=O)C(Cl)=C(Oc3cccc(OC)c3)C2=O)cc1 | > 38 µM (inactive)
O=C(NCc1ccc2c(c1)OCO2)c1nc(S(=O)(=O)Cc2ccccc2)ncc1Cl | > 38 µM (inactive)
COC(=O)c1cc(NC(=O)Nc2ccccc2OC)cc(C(=O)OC)c1 | > 38 µM (inactive)
CCOC(=O)c1sc(N(Cc2ccccc2)C(=O)CCl)nc1C | 5.79 µM
CCOC(=O)C1=C(c2ccccc2)O/C(=C(/C#N)C(F)(F)F)S1 | > 38 µM (inactive)
CCOC(=O)CSc1nc2sc3c(c2c(=O)n1C1CCCCC1)CCN(C)C3 | > 38 µM (inactive)
COc1ccc2c(c1)C(=C(C#N)C#N)C(=O)N2CCc1ccccc1 | > 38 µM (inactive)
O=C(O)C1Nc2c(O)cc(Cl)c([N+](=O)[O-])c2C2C=CCC12 (stereo unspecified) | 10.9 µM

SMILES | AC50
CC1OC(Nc2cccc3ccccc23)C(O)C(O)C1O (stereo unspecified) | > 38 µM (inactive)
N#Cc1ncc(Cc2ccccc2)nc1C#N | > 38 µM (inactive)
O=C(O)/C=C\C(=O)Nc1ccc(Oc2ccc(Br)cc2)cc1 | 15.2 µM
O=C(NC1=C(NC2CCS(=O)(=O)C2)C(=O)c2ccccc2C1=O)c1ccccc1 (stereo unspecified) | 1.17 µM
O=Cc1ccc(Sc2nnc(-c3ccccc3)o2)c([N+](=O)[O-])c1 | 21 µM
Oc1cnn(-c2ccccc2)c1 | > 38 µM (inactive)
Cc1oc2c(c1C(=O)NCc1cccnc1)C(=O)c1ccccc1C2=O | 1.4 µM
Cc1cccc(C)c1NC(=O)c1nc(S(=O)(=O)Cc2ccccc2)ncc1Cl | > 38 µM (inactive)
Cc1ccc(C(c2cc(Cl)c3cccnc3c2O)N2CCN(C)CC2)cc1 (stereo unspecified) | 19.3 µM
CC(CCn1cccn1)NC(=O)CCc1nnc(CCc2ccccc2)o1 (stereo unspecified) | > 38 µM (inactive)
CCCc1nn(C)c2c1C(c1cccnc1)C(C#N)=C(N)O2 (stereo unspecified) | > 38 µM (inactive)
CSCCC1C(C#N)=C(N)Oc2n[nH]c(-c3cccs3)c21 (stereo unspecified) | 11.4 µM
Cc1cc2nc(Sc3c([N+](=O)[O-])nc(C)n3Cc3ccccc3)[nH]c2cc1C | > 38 µM (inactive)
CC(/C=C1\SC(=S)N(NC(=O)c2cccc(O)c2)C1=O)=C\c1ccccc1 | 20.9 µM
CCCNC1=C(N(C(C)=O)c2cccc(F)c2)C(=O)c2ccccc2C1=O | 3.72 µM
Cc1ccc(NC(=O)COc2cccc(/C=C3\SC(=S)N(CCC(=O)O)C3=O)c2)cc1Cl | 10.2 µM
O=C(O)c1ccc2c3c(ncnc13)-c1ccccc1C2=O | 7.47 µM
CC1=NNC(=O)C1C(c1cccc(O)c1)C(C#N)C#N (stereo unspecified) | > 38 µM (inactive)
COC(=O)CSc1nc(N)c2c3c(sc2n1)C(c1ccccc1)SC(c1ccccc1)C3 (stereo unspecified) | > 38 µM (inactive)
CC(=O)Oc1ccc2c(=O)oc(-c3ccccc3C)nc2c1 | > 38 µM (inactive)
CC1=NN(Cc2ccccc2)C(=O)C1C(c1ccc(Cl)cc1)C(C#N)C#N (stereo unspecified) | 31 µM
O=C(CCl)Nc1cn(-c2ccccc2)nc1-c1ccccc1 | 7.77 µM

SMILES | AC50
COc1cc(/C=N/NC(=O)CC2(C)OCCCO2)ccc1OCc1ccccc1 | > 38 µM (inactive)
COC(=O)c1cccc(N2C(=O)C(Cl)=C(N3CCOCC3)C2=O)c1 | > 38 µM (inactive)
CCCCN(C(=O)c1cccc2c(=O)c(C)c(-c3ccccc3)oc12)c1ccccc1 | 6.5 µM
COC(=O)c1sc(-c2ccc(C(C)(C)C)cc2)cc1NC(=O)/C=C/C(=O)O | 5.71 µM
Cc1cc2c(N)cccc2nn1 | > 38 µM (inactive)
COC(=O)c1sc(N)c(C(=O)OC)c1Cn1ncc(Cl)c(Cl)c1=O | > 38 µM (inactive)
CCOC(=O)c1cnc(N)nc1C(F)(F)F | > 38 µM (inactive)
COc1ccc(C(=O)/C(=C/c2cccs2)c2nc3ccccc3o2)cc1 | > 38 µM (inactive)
O=S(=O)(CCSc1ccccn1)c1nc2ccccc2s1 | > 38 µM (inactive)
Cc1[nH]n(-c2ccccc2)c(=O)c1C(c1ccc(O)c([N+](=O)[O-])c1)c1c(C)[nH]n(-c2ccccc2)c1=O | 2.77 µM
CCc1cc(C(=O)c2ccc(C)cc2)c(NC(=O)CCl)s1 | 2.62 µM
Cc1[nH][nH]c(=O)c1C(c1ccc(-c2ccc(Cl)c(Cl)c2)o1)c1c(C)[nH][nH]c1=O | 3.11 µM
O=C(c1c[nH]c(C(=O)C(Cl)(Cl)Cl)c1)c1ccccc1Cl | 24.9 µM
Nn1cnnc1N/N=C/c1ccc(Cl)c([N+](=O)[O-])c1 | > 38 µM (inactive)
COc1ccc(-n2c3nc4ccccc4nc3c3c(=N)oc(C)nc32)cc1 | > 12 µM (inactive)
O=C(c1cccc(C(F)(F)F)c1)C1CCCN(Cc2ncc[nH]2)C1 (stereo unspecified) | > 38 µM (inactive)
Cc1nc2ccccc2c2c1C(=O)NC2=O | > 38 µM (inactive)
COc1ccccc1Nc1cc2cc(Br)ccc2c(=O)[nH]1 | 6.07 µM
CC(C)(C)OC(=O)NCCc1nnc(S(=O)(=O)Cc2ccc(Cl)cc2Cl)o1 | > 38 µM (inactive)
Cc1nn(C(=O)c2cccnc2)c(C)c1Sc1ccc(Br)cc1 | 24.5 µM
COc1ccc(C2CC(c3cccs3)=NN2C(=O)CSC2=NCCS2)cc1 (stereo unspecified) | 38.2 µM
Cn1cnc([N+](=O)[O-])c1Oc1cccc2ccccc12 | > 38 µM (inactive)

SMILES | AC50
Cc1[nH][nH]c(=O)c1C(c1ccc(-c2ccccc2C(=O)O)o1)c1c(C)[nH][nH]c1=O | 3.19 µM
COc1ccc(N2CCN(C(=O)c3ccc(Oc4ccc(C(F)(F)F)cn4)cc3)CC2)cc1 | > 38 µM (inactive)
CCc1ccc2c(c1)C(NC(C)=O)C(=O)N2CCN1CCOCC1 (stereo unspecified) | 37 µM
O=c1[nH]c(Nc2ccccc2Cl)cc2ccccc12 | 15.5 µM
CCOc1ccccc1CNc1ccc(O)cc1 | 37.6 µM
Oc1cccc(Nc2nc(-c3ccccc3Cl)nc3ccccc23)c1 | > 38 µM (inactive)
CC1=NN(c2ccccc2)C(=O)/C1=C\c1cn(CCC#N)nc1-c1ccc(Cl)cc1 | > 38 µM (inactive)
Cc1cc(=O)n(-c2ccccc2Cl)[nH]1 | 22.3 µM
Cc1cc(Br)c2c(c1)/C(=C/C(=O)c1cccs1)C(=O)N2 | > 38 µM (inactive)
CC1=C(C)CC2(SC1)C(=O)N(c1ccccc1)N=C2N (stereo unspecified) | > 38 µM (inactive)
Cc1ccc(N2C(=O)C(Cl)=C(N3CCOCC3)C2=O)cc1Cl | > 38 µM (inactive)
COc1ccccc1-c1cc(C(F)(F)F)nc(S(=O)(=O)CCCC(=O)NCc2ccc(F)cc2)n1 | 6.03 µM
O=C(CCl)N1N=C(c2ccco2)CC1c1ccco1 (stereo unspecified) | 19.1 µM
O=c1cc(-c2ccccc2)[nH]n1-c1ccc([N+](=O)[O-])cc1 | 13.1 µM
Cn1c(=O)c([N+](=O)[O-])c(Cl)c2ccccc21 | > 38 µM (inactive)
O=C(CCl)N(Cc1cccc([N+](=O)[O-])c1)c1cccc(Cl)c1 | 2.77 µM
COc1nc(NC(C)C)nc(N(C#N)CN2C(=O)c3ccccc3S2(=O)=O)n1 | > 38 µM (inactive)
Cc1nc2ccccc2c2c1C(=O)N(Cc1cccnc1)C2=O | > 38 µM (inactive)
Cc1ccc(C(C[N+](=O)[O-])c2c(C)[nH]n(-c3ccccc3)c2=O)cc1 (stereo unspecified) | 5.5 µM
COc1ccc(S(=O)(=O)/N=C2\C=C(NS(=O)(=O)c3ccccc3)C(=O)c3ccccc32)cc1 | 2.95 µM
Cc1nn(Cc2ccccc2)c2c1C(c1ccncc1)C(C#N)=C(N)O2 (stereo unspecified) | > 38 µM (inactive)
N#CC1=C(N)Oc2n[nH]c(-c3ccccc3)c2C1c1cccc(OC(=O)N2CCOCC2)c1 (stereo unspecified) | 32.7 µM

SMILES | AC50
Cc1cc(=O)n(-c2ccc(O)cc2)[nH]1 | 7.46 µM
Cn1nc([N+](=O)[O-])nc1Sc1nnc(-c2ccccc2)o1 | > 38 µM (inactive)
CCOC(=O)c1c(CSC(=N)N)n(-c2ccc(C)cc2)c2cc(Br)c(OC(C)=O)cc12 | 8.36 µM
COc1ccc(-c2cc(C(=O)n3cnc4ccccc43)c3ccccc3n2)cc1 | > 38 µM (inactive)
COC(=O)c1[nH]c(=O)c2ccccc2c1O | 12.1 µM
O=C(CCl)N1N=C(c2ccco2)CC1c1cccs1 (stereo unspecified) | 6.09 µM
O=c1[nH]c(CCl)nc2cc(-c3ccc(F)cc3)sc12 | 11.9 µM
N#CC1=C(N)Oc2n[nH]c(-c3cccs3)c2C1c1cccnc1 (stereo unspecified) | > 38 µM (inactive)
COCCOC(=O)C1=C(C)N=C2SCCC(=O)N2C1c1ccc(OC(=O)c2ccco2)cc1 (stereo unspecified) | > 38 µM (inactive)
COc1ccc(N(Cc2cc(=O)[nH]c3ccccc23)C(=O)CCl)cc1 | 8.33 µM
O=C(CNC(=O)C1COc2ccccc2O1)N/N=C\c1ccccc1Cl (stereo unspecified) | > 38 µM (inactive)
CC(C)(C)c1cnnn1-c1ccc(C(=O)CCl)cc1 | > 38 µM (inactive)
Cc1cc(C(=O)CCl)c(C)n1CCc1ccccc1 | 14.2 µM
CCn1nc(C)c(C2C(C#N)=C(N)Oc3n[nH]c(C)c32)c1C (stereo unspecified) | > 38 µM (inactive)
O=c1c2ccccc2nc(/C=C/c2cccnc2)n1Cc1ccccc1 | 13.6 µM
CC(C)S(=O)(=O)C1=NSC2=NC(=O)/C(=C\c3ccc(OC(=O)c4ccco4)cc3)C(=N)N21 | 30.6 µM
O=C(CCl)NCc1c(Cl)cccc1-n1cccc1 | 7.58 µM
Cc1nn(-c2ccccc2)c(Cl)c1/C=C1\SC(=S)N(CCCCCC(=O)O)C1=O | 14.8 µM
